# Measured values: patent publication US20180000085A1, “USE OF PICOLINAMIDE COMPOUNDS WITH FUNGICIDAL ACTIVITY” (DOW AGROSCIENCES LLC, priority 2014, published 2018)
# Assays:
# Zymoseptoria tritici = test: Leaf blotch of wheat (SEPTTR) disease control on wheat seedlings; format: in vivo; parameters: key to SEPTTR 1DP, HV activity at 100 ppm (% control rating) / SEPTTR 3DC, HV activity at 100 ppm (% control rating) / SEPTTR disease control, 1DP / SEPTTR disease control, 3DC / SEPTTR 1DP disease control rating, HV activity / SEPTTR 3DC disease control rating, HV activity / SEPTTR 3DC, LV activity at 125.1 g/H (% Control rating) / SEPTTR 1DP, LV activity at 125.1 g/H (% Control rating) / SEPTTR 1DP disease control rating, LV activity at 125.1 g/H / SEPTTR 3DC disease control rating, LV activity at 125.1 g/H / SEPTTR 3DC disease control rating, HV activity at 100 ppm / SEPTTR 1DP disease control rating, HV activity at 100 ppm / HV activity at 100 ppm SEPTTR 3DC (disease control rating) / HV activity at 100 ppm SEPTTR 1DP (disease control rating) / LV activity at 125.1 g/H SEPTTR 1DP (disease control rating) / LV activity at 125.1 g/H SEPTTR 3DC (disease control rating): A: > 80; B: ≤ 80; C: Not Tested; D: No Activity Observed in the Reported Assay; conditions: HV application at 100 ppm, wheat leaf blotch; for SEPTTR 1DP disease control rating, HV activity: 1 Day Protectant; for SEPTTR 3DC disease control rating, HV activity: 3 Day Curative
# Puccinia triticina = test: Wheat brown rust (PUCCRT) disease control on wheat seedlings; format: in vivo; parameters: key to PUCCRT 3DC, HV activity at 100 ppm (% control rating) / PUCCRT disease control, 3DC / PUCCRT 1DP disease control rating, HV activity / PUCCRT 3DC disease control rating, HV activity / PUCCRT 3DC, LV activity at 125.1 g/H (% Control rating) / PUCCRT 1DP, LV activity at 125.1 g/H (% Control rating) / PUCCRT 3DC disease control rating, LV activity at 125.1 g/H / PUCCRT 1DP disease control rating, LV activity at 125.1 g/H / PUCCRT 3DC disease control rating, HV activity at 100 ppm / PUCCRT 1DP disease control rating, HV activity at 100 ppm / HV activity at 100 ppm PUCCRT 3DC (disease control rating) / LV activity at 125.1 g/H PUCCRT 1DP (disease control rating) / LV activity at 125.1 g/H PUCCRT 3DC (disease control rating): A: > 80; B: ≤ 80; C: Not Tested; D: No Activity Observed in the Reported Assay; conditions: HV application at 100 ppm, wheat brown rust; for PUCCRT 1DP disease control rating, HV activity: 1 Day Protectant; for PUCCRT 3DC disease control rating, HV activity: 3 Day Curative
compound,measurement,setting,value
COc1ccnc(C(=O)N[C@@H](C)C(=O)O[C@@H](C)[C@H](Oc2ccc(Cl)cc2Cl)C(C)C)c1O [Cmpd 358],"SEPTTR 1DP disease control rating, HV activity",Zymoseptoria tritici,B (≤ 80)
same,"SEPTTR 3DC disease control rating, HV activity",Zymoseptoria tritici,B (≤ 80)
same,"PUCCRT 1DP disease control rating, HV activity",Puccinia triticina,B (≤ 80)
same,"PUCCRT 3DC disease control rating, HV activity",Puccinia triticina,B (≤ 80)
COc1ccnc(C(=O)N[C@@H](C)C(=O)O[C@@H](C)[C@H](Oc2ccc(Cl)cc2)C(C)C)c1O [Cmpd 359],"SEPTTR 1DP disease control rating, HV activity",Zymoseptoria tritici,A (> 80)
same,"SEPTTR 3DC disease control rating, HV activity",Zymoseptoria tritici,A (> 80)
same,"PUCCRT 1DP disease control rating, HV activity",Puccinia triticina,A (> 80)
same,"PUCCRT 3DC disease control rating, HV activity",Puccinia triticina,A (> 80)
CCC(CC)C(Oc1ccc(Cl)cc1Cl)C(C)OC(=O)C(C)NC(=O)c1nccc(OC)c1O (stereo not shown) [Cmpd 381],"SEPTTR 1DP disease control rating, HV activity",Zymoseptoria tritici,D
same,"SEPTTR 3DC disease control rating, HV activity",Zymoseptoria tritici,D
same,"PUCCRT 1DP disease control rating, HV activity",Puccinia triticina,D
same,"PUCCRT 3DC disease control rating, HV activity",Puccinia triticina,D
CCC(CC)C(Oc1cc(F)ccc1F)C(C)OC(=O)C(C)NC(=O)c1nccc(OC)c1O (stereo not shown) [Cmpd 382],"SEPTTR 1DP disease control rating, HV activity",Zymoseptoria tritici,D
same,"SEPTTR 3DC disease control rating, HV activity",Zymoseptoria tritici,B (≤ 80)
same,"PUCCRT 1DP disease control rating, HV activity",Puccinia triticina,A (> 80)
same,"PUCCRT 3DC disease control rating, HV activity",Puccinia triticina,A (> 80)
CCC(CC)C(Oc1cc(F)cc(Cl)c1)C(C)OC(=O)C(C)NC(=O)c1nccc(OC)c1O (stereo not shown) [Cmpd 383],"SEPTTR 1DP disease control rating, HV activity",Zymoseptoria tritici,B (≤ 80)
same,"SEPTTR 3DC disease control rating, HV activity",Zymoseptoria tritici,A (> 80)
same,"PUCCRT 1DP disease control rating, HV activity",Puccinia triticina,A (> 80)
same,"PUCCRT 3DC disease control rating, HV activity",Puccinia triticina,A (> 80)
CCC(CC)C(Oc1ccccc1Cl)C(C)OC(=O)C(C)NC(=O)c1nccc(OC)c1O (stereo not shown) [Cmpd 384],"SEPTTR 1DP disease control rating, HV activity",Zymoseptoria tritici,B (≤ 80)
same,"SEPTTR 3DC disease control rating, HV activity",Zymoseptoria tritici,A (> 80)
same,"PUCCRT 1DP disease control rating, HV activity",Puccinia triticina,A (> 80)
same,"PUCCRT 3DC disease control rating, HV activity",Puccinia triticina,A (> 80)
CCC(CC)C(Oc1ccc(C(F)(F)F)cc1)C(C)OC(=O)C(C)NC(=O)c1nccc(OC)c1O (stereo not shown) [Cmpd 385],"SEPTTR 1DP disease control rating, HV activity",Zymoseptoria tritici,D
same,"SEPTTR 3DC disease control rating, HV activity",Zymoseptoria tritici,D
same,"PUCCRT 1DP disease control rating, HV activity",Puccinia triticina,B (≤ 80)
same,"PUCCRT 3DC disease control rating, HV activity",Puccinia triticina,A (> 80)
CCC(CC)C(Oc1cccc(-c2ccccc2)c1)C(C)OC(=O)C(C)NC(=O)c1nccc(OC)c1O (stereo not shown) [Cmpd 386],"SEPTTR 1DP disease control rating, HV activity",Zymoseptoria tritici,D
same,"SEPTTR 3DC disease control rating, HV activity",Zymoseptoria tritici,D
same,"PUCCRT 1DP disease control rating, HV activity",Puccinia triticina,B (≤ 80)
same,"PUCCRT 3DC disease control rating, HV activity",Puccinia triticina,B (≤ 80)
CCC(CC)C(Oc1ccc(-c2ccccc2)cc1)C(C)OC(=O)C(C)NC(=O)c1nccc(OC)c1O (stereo not shown) [Cmpd 387],"SEPTTR 1DP disease control rating, HV activity",Zymoseptoria tritici,D
same,"SEPTTR 3DC disease control rating, HV activity",Zymoseptoria tritici,D
same,"PUCCRT 1DP disease control rating, HV activity",Puccinia triticina,B (≤ 80)
same,"PUCCRT 3DC disease control rating, HV activity",Puccinia triticina,D
COc1ccnc(C(=O)NC(C)C(=O)OC(C)C(Oc2ccc(-c3ccccc3)cc2)C(C)C)c1O (stereo not shown) [Cmpd 388],"SEPTTR 1DP disease control rating, HV activity",Zymoseptoria tritici,A (> 80)
same,"SEPTTR 3DC disease control rating, HV activity",Zymoseptoria tritici,B (≤ 80)
same,"PUCCRT 1DP disease control rating, HV activity",Puccinia triticina,A (> 80)
same,"PUCCRT 3DC disease control rating, HV activity",Puccinia triticina,B (≤ 80)
COc1ccnc(C(=O)NC(C)C(=O)OC(C)C(Oc2cccc(-c3ccccc3)c2)C(C)C)c1O (stereo not shown) [Cmpd 389],"SEPTTR 1DP disease control rating, HV activity",Zymoseptoria tritici,B (≤ 80)
same,"SEPTTR 3DC disease control rating, HV activity",Zymoseptoria tritici,B (≤ 80)
same,"PUCCRT 1DP disease control rating, HV activity",Puccinia triticina,A (> 80)
same,"PUCCRT 3DC disease control rating, HV activity",Puccinia triticina,D
COc1ccnc(C(=O)NC(C)C(=O)OC(C)C(Oc2cccc(F)c2)C(C)C)c1O (stereo not shown) [Cmpd 390],"SEPTTR 1DP disease control rating, HV activity",Zymoseptoria tritici,B (≤ 80)
same,"SEPTTR 3DC disease control rating, HV activity",Zymoseptoria tritici,A (> 80)
same,"PUCCRT 1DP disease control rating, HV activity",Puccinia triticina,A (> 80)
same,"PUCCRT 3DC disease control rating, HV activity",Puccinia triticina,A (> 80)
COc1ccnc(C(=O)NC(C)C(=O)OC(C)C(Oc2ccc(F)cc2)C(C)C)c1O (stereo not shown) [Cmpd 391],"SEPTTR 1DP disease control rating, HV activity",Zymoseptoria tritici,A (> 80)
same,"SEPTTR 3DC disease control rating, HV activity",Zymoseptoria tritici,A (> 80)
same,"PUCCRT 1DP disease control rating, HV activity",Puccinia triticina,A (> 80)
same,"PUCCRT 3DC disease control rating, HV activity",Puccinia triticina,A (> 80)
